Details: for log10 biotransformation half-life (days) / log10 BCF: fish

| Compound | boiling point [°C] | melting point [°C] | other results |
| --- | --- | --- | --- |
| O=[N+]([O-])c1ccc2ccccc2c1 | 314 | 79 | – |
| CCCCCCCCCCCCCCCCCCCCC1CCCCC1 | 430 | 48.5 | – |
| CCC(C)(C)S | 99.1 | – | log10 vapour pressure (mmHg): 1.68 |
| C=CC1CCC1C=C (centres undefined) | 112 | – | – |
| Clc1cc(Cl)c(-c2c(Cl)cc(Cl)c(Cl)c2Cl)cc1Cl | – | 83 | log10 biotransformation half-life (days): 2.59 |
| CC(C)N=C=NC(C)C | 147 | – | – |
| Clc1ccccc1C=C1c2ccccc2-c2ccccc21 | – | 69.5 | – |
| CCOC(C(=O)c1ccccc1)c1ccccc1 (centres undefined) | – | 62 | – |
| O=C(O)c1nn(Cc2ccc(Cl)cc2Cl)c2ccccc12 | – | 207 | – |
| CC[C@@]12CCCN3CC[C@]4(c5cccc(OC)c5N(C(C)=O)[C@@H]4CC1)[C@H]32 | – | 208 | – |
| CC(=O)N(C)C | – | – | ready biodegradability: readily biodegradable |
| CCN1C[C@]2(COC)CCC(O)[C@]34C1C(O)([C@@H](OC)[C@H]23)C1(O)C[C@H](OC)[C@H]2C[C@@H]4[C@@H]1[C@H]2OC (some centres undefined) | – | 214 | – |
| Nc1ccc(Cl)cc1C(=O)c1ccccc1 | – | 99 | – |
| NNc1ccc(Br)cc1 | – | 108 | – |
| C1CC12CC2 | 39 | -135 | log10 vapour pressure (mmHg): 2.66 |
| c1cnc2ccc3ncccc3c2c1 | – | 177 | – |
| Br.CCNCC | – | 219 | – |
| CCCC=CCC=O | 151 | – | – |
| NC(N)=S | – | 182 | log10 Koc (L/kg): 0.85; log10 vapour pressure (mmHg): -2.55; log10 BCF: 0.3 |
| CC(C)(c1cc(Br)c(O)c(Br)c1)c1cc(Br)c(O)c(Br)c1 | – | 181 | ready biodegradability: not readily biodegradable; log10 BCF: 2.43 |
| S=C(Nc1ccccc1)c1ccccc1 | – | 102 | – |
| CC(C)C(=O)OC1CCCCC1 | 204 | – | – |
| C=CC(=O)OCC | 99.4 | -71.2 | log10 vapour pressure (mmHg): 1.59; ready biodegradability: readily biodegradable |
| CN1C(=O)C(C)(C2=CCCCC2)C(=O)N=C1O (centres undefined) | – | 146 | – |
| Nc1ccc(OCCCCCN2C(=O)c3ccccc3C2=O)cc1 | – | 114 | – |

| Compound | boiling point [°C] | melting point [°C] | other results |
| --- | --- | --- | --- |
| CC(C)CCC[C@@H](C)[C@H]1CC[C@H]2[C@@H]3CC=C4C[C@@H](O)CC[C@]4(C)[C@H]3CC[C@]12C | 360 | 145 | – |
| O=c1n(-c2ccccc2)c(=O)n(-c2ccccc2)c(=O)n1-c1ccccc1 | – | 285 | – |
| CCCCOC(=O)c1ccccc1C(=O)OCCCC | 340 | -35 | log10 Henry constant (atm·m³/mol): -5.74; log10 Koc (L/kg): 3.14; log10 vapour pressure (mmHg): -4.7; ready biodegradability: readily biodegradable; log10 BCF: 2.22; log10 biotransformation half-life (days): -0.4 |
| CCCOC(=O)C1CCCCC1 | 216 | – | – |
| CC[Si](O)(CC)CC | 154 | – | – |
| Oc1ccccc1C(F)(F)F | 148 | 45.5 | – |
| Nc1ccn([C@H]2CC[C@@H](CO)O2)c(=O)n1 | – | 218 | – |
| O=c1cc(-c2ccccc2)oc2cc(O)ccc12 | – | 246 | – |
| FC(F)(F)c1ccc(C(F)(F)F)cc1 | 116 | – | – |
| CC(C)(C)NC[C@H](O)COc1nsnc1N1CCOCC1 | – | 202 | – |
| Cc1cc(NC(N)=O)ccc1Br | – | – | log10 Koc (L/kg): 2.37 |
| C=Cc1ccc(C)cc1C | – | -64 | – |
| Nc1cccc(O)c1 | – | 123 | ready biodegradability: not readily biodegradable; log10 BCF: 1.34 |
| CC(=O)Nc1cccc(C(F)(F)F)c1 | – | 104 | log10 Koc (L/kg): 1.75 |
| Cn1c(=O)cc[nH]c1=O | – | – | log10 vapour pressure (mmHg): -3.15 |
| CC(=O)Oc1ccc(C(=O)O)cc1 | – | 192 | – |
| Cc1cc(O)cc(Br)c1 | – | 56.5 | – |
| Cc1c(C2(c3cc(C(C)C)c(O)c(Br)c3C)OS(=O)(=O)c3ccccc32)cc(C(C)C)c(O)c1Br | – | 201 | – |
| CCN(CC)CCN | 144 | – | – |
| CCCC(C)CC=O (centres undefined) | 143 | – | – |
| O=C1CCCCC1=O | 194 | 40 | – |
| C#CCOC | 63 | – | – |
| COC(=O)c1ccccc1[N+](=O)[O-] | 275 | -13 | – |
| c1ccc(P(c2ccccc2)c2ccccc2)cc1 | – | 80 | – |
| Cc1cccc(Nc2ccccc2C(=O)O)c1C | – | 230 | – |

| Compound | boiling point [°C] | melting point [°C] | other results |
| --- | --- | --- | --- |
| O=C(Nc1ccc(Cc2ccc(NC(=O)N3CC3)cc2)cc1)N1CC1 | – | – | ready biodegradability: not readily biodegradable |
| CCSC(=O)N1CCCCCC1 | – | – | log10 Henry constant (atm·m³/mol): -5.39; log10 Koc (L/kg): 1.92; log10 vapour pressure (mmHg): -2.25; log10 BCF: 1.41; log10 biotransformation half-life (days): -1.08 |
| CCCCCCCCCCCCCCCCCCCCCCO | – | 72.5 | – |
| Fc1cccc(F)c1-c1nnc(-c2ccccc2Cl)nn1 | – | 188 | – |
| Clc1ccc2ccccc2n1 | 266 | 38 | – |
| NNc1ccc(S(=O)(=O)O)cc1 | – | 286 | – |
| CCCCCCCCCCCCSCCC(=O)OCC(COC(=O)CCSCCCCCCCCCCCC)(COC(=O)CCSCCCCCCCCCCCC)COC(=O)CCSCCCCCCCCCCCC | – | – | ready biodegradability: not readily biodegradable |
| O=C(O)c1ccc2c(c1)C(=O)OC2=O | 390 | 162 | log10 vapour pressure (mmHg): -5.01; ready biodegradability: readily biodegradable |
| CCN(C(C)=O)c1ccccc1 | 260 | 55 | – |
| CC1(C)CCC(C)(C)O1 | 112 | – | – |
| CCCCCCCCCCCO | 243 | 19 | log10 vapour pressure (mmHg): -2.53; ready biodegradability: readily biodegradable |
| O=C1OC(c2cc(Br)c(O)c(Br)c2)(c2cc(Br)c(O)c(Br)c2)c2ccccc21 | – | 296 | – |
| CC1(C)[C@@H]2CC[C@@]1(C)[C@H](O)C2 | – | 209 | – |
| C[Si](Cl)(Cl)Cl | 65.6 | -90 | log10 vapour pressure (mmHg): 2.22 |
| c1ccc(COP(OCc2ccccc2)OCc2ccccc2)cc1 | – | – | ready biodegradability: readily biodegradable |
| CCCCc1ccc(C=O)cc1 | – | – | ready biodegradability: not readily biodegradable |
| O=C(O)Cc1ccc(-c2ccccc2)cc1 | – | 160 | – |
| COC(=O)c1ccc(O)cc1O | – | 120 | – |
| NC(=O)CCCCC1CCSS1 (centres undefined) | – | 128 | – |
| O=C1C(O)=C(C2CCCCC2)C(=O)c2ccccc21 | – | 136 | – |
| c1ccc2c(c1)ccc1c2ccc2c3ccccc3ccc21 | 519 | 368 | – |
| CC(C)C1=CC2=C(CC1)[C@@]1(C)CCC[C@@](C)(C(=O)O)[C@@H]1CC2 | – | 164 | log10 BCF: 1.4 |
| ClCCC(Cl)(Cl)Cl | 157 | – | – |
| Cc1ccn2nc(S(=O)(=O)Nc3c(F)cccc3F)nc2n1 | – | 252 | log10 Koc (L/kg): 1.45; log10 vapour pressure (mmHg): -11.6 |
| CCS(=O)(=O)CC | 248 | 73.5 | – |

| Compound | boiling point [°C] | melting point [°C] | other results |
| --- | --- | --- | --- |
| COc1cc(Cl)c(Cl)cc1OC | – | 83 | – |
| CC1OC(OCC2OC(Oc3c(-c4ccc(O)cc4)oc4cc(OC5OC(C)C(O)C(O)C5O)cc(O)c4c3=O)C(O)C(O)C2O)C(O)C(O)C1O (centres undefined) | – | 250 | – |
| O=C(OC1CCCCC1)C(=O)OC1CCCCC1 | – | 43.5 | – |
| O=C(O)CCCCCCCCCCCCCCCCCCC(=O)O | – | 126 | – |
| CCCCCCCCCCCCCCCCCCCCCC(=O)OC | – | 54 | – |
| CCCCCCCc1ccccc1 | 240 | -48 | log10 vapour pressure (mmHg): -1.51 |
| O=C1c2ccccc2C(=O)c2c(O)ccc(O)c21 | – | 200 | log10 vapour pressure (mmHg): -7.61 |
| CC=CC(C)(C)O | 112 | – | – |
| O=[N+]([O-])c1ccc2ccc3cccc4ccc1c2c34 | – | 155 | – |
| CC(CC=O)CCCC(C)(C)O (centres undefined) | 241 | – | – |
| C[C@]12CC[C@H]3[C@@H](CCC4=CC(=O)C=C[C@@]43C)[C@@H]1CC[C@H]2O | – | 165 | – |
| CC(Cl)CCCCl (centres undefined) | 162 | – | – |
| CCCCCCCCOC(C)=O | 210 | -38.5 | – |
| C=CC(O)CCC (centres undefined) | 134 | – | – |
| C#CCCCCCCCCCCCCCCCCCC | 340 | 36 | – |
| CC(C)(c1ccc(OC(F)(F)C(F)F)cc1)c1ccc(OC(F)(F)C(F)F)cc1 | – | – | log10 BCF: 4.35; log10 biotransformation half-life (days): 2.79 |
| CC1CCCO1 (centres undefined) | 78 | – | log10 Henry constant (atm·m³/mol): -4.03; log10 vapour pressure (mmHg): 1.99 |
| Clc1cc2c(c(Cl)c1Cl)Oc1cc(Cl)c(Cl)c(Cl)c1O2 | – | 285 | log10 Koa: 11; log10 vapour pressure (mmHg): -10.4; log10 BCF: 3.93; log10 biotransformation half-life (days): 1.21 |
| Nc1c(Cl)cc(Cl)cc1Cl | 262 | 78.5 | ready biodegradability: not readily biodegradable; log10 BCF: 2; log10 biotransformation half-life (days): 0.67 |
| CCC(=O)c1ccc(Cl)cc1 | – | 37.3 | – |
| FC(F)(Br)C(F)(Cl)Br (centres undefined) | 93 | – | – |
| c1ccc2sc(SSc3nc4ccccc4s3)nc2c1 | – | 180 | ready biodegradability: not readily biodegradable; log10 BCF: 1.42; log10 biotransformation half-life (days): -0.91 |
| CC(c1ccccc1)c1ccccc1O (centres undefined) | – | – | ready biodegradability: not readily biodegradable |
| O=C(O)Cc1ccc(Cl)cc1 | – | 106 | – |
| CC[N+](C)(C)C(C)CC(c1ccccc1)c1ccccc1.[Br-] (centres undefined) | – | 204 | – |

| Compound | boiling point [°C] | melting point [°C] | other results |
| --- | --- | --- | --- |
| c1ccc(-c2ccc(-c3ccc(-c4ccccc4)cc3)cc2)cc1 | – | 320 | – |
| FC1(F)C(F)(F)C(F)(F)C1(F)F | -5.9 | -40.1 | log10 vapour pressure (mmHg): 3.37 |
| CC=CC(C)C(C)C=CC (centres undefined) | 154 | -64.8 | – |
| CCc1cc2ccccc2c2ccccc12 | – | 62.5 | log10 biotransformation half-life (days): 0.29 |
| Brc1cccc(Oc2ccc(Br)c(Br)c2Br)c1 | – | – | log10 vapour pressure (mmHg): -5.66 |
| CC(C)=CCC[C@@H](C)C1=C(O)C(=O)C(C)=CC1=O | – | 104 | – |
| C=Cc1ccccc1Br | 209 | -52.5 | – |
| O=C(O)CN(CCN(CC(=O)O)CC(=O)O)CC(=O)O | – | – | log10 vapour pressure (mmHg): -11.8; ready biodegradability: not readily biodegradable |
| CCOC(OCC)C(Cl)Cl | 184 | – | – |
| CCOC(=O)c1ccccc1N | 268 | 13 | – |
| CC(C)(c1cc(Cl)c(O)c(Cl)c1)c1cc(Cl)c(O)c(Cl)c1 | – | 135 | – |
| c1ccn2cccc2c1 | 205 | 75 | – |
| Clc1cccc2cccc(Cl)c12 | – | 89 | log10 BCF: 3.79 |
| Cc1ccc2cccc([N+](=O)[O-])c2n1 | – | 140 | – |
| COc1ccc(C)cc1OC | 220 | 24 | – |
| O=C1c2ccccc2C(=O)C1C(=O)C(c1ccccc1)c1ccc(Cl)cc1 (centres undefined) | – | 140 | log10 vapour pressure (mmHg): -9.12 |
| CC(C)c1cc(C(C)C)c(C(C)C)cc1C(C)C | 259 | 118 | log10 vapour pressure (mmHg): -2.7 |
| CC(C)CC1CCCCC1 | 171 | -95 | log10 vapour pressure (mmHg): 0.684; log10 biotransformation half-life (days): 0.91 |
| COCCCNc1nc(NCCCOC)nc(SC)n1 | – | 55 | – |
| C1CCSSC1 | – | 32.5 | – |
| O=S(=O)(Cl)C(Cl)(Cl)Cl | 170 | 140 | – |
